In brackets after ≈: the same amount, converted by molar mass.
What was measured:
Pseudomonas aeruginosa = experiment: Filter disc zone of inhibition on Mueller Hinton plates; type: cell-based; details: control study
Procedure: (§1) Antimicrobial activity of the released drug was tested on Pseudomonas aeruginosa and MRSA cultures and compared to standard concentrations of antibiotic using filter disks on Mueller Hinton plates. The released antibiotics or controls were added onto sterile filter discs (created using a standard hole punch on filter paper, autoclaved). One colony of each bacteria was selected and (pseudomonas or MRSA) placed into a bacteria culture tube and were incubated in 5 mL of LB broth and placed on 37° C. shaker for approximately 4-6 hours.
(§2) 500 μL of the incubated bacteria was then added to the Mueller-Hinton Plates (which have been acclimated to room temperature for at least 2 hours) and a plastic disposable spreader was used to carefully spread the bacteria broth onto the plates and allowed to settle for approximately 5-10 minutes. The filter discs were then placed on top of the bacterial plate and the plates inverted and placed in the 37° C. incubator overnight. After 24 hours, the plates were removed and the zones of inhibition measured and photographed. Parafilm was used to wrap around each plate to keep the plates at room temperature.

[1] = published studies; cited from earlier work
MRSA = experiment: Filter disc zone of inhibition on Mueller Hinton plates; type: cell-based
Procedure: as §1, §2

| Compound | amount sufficient to inhibit growth (Pseudomonas aeruginosa) [µg] | minimum inhibitory concentration [1] [µg/mL] | zone of inhibition at 10 µg/disc (MRSA; Staphylococcus aureus, MRSA, control, 10 μg on a filter disc) [mm] | amount sufficient to inhibit growth (MRSA; control study, filter disc) [µg] | zone of inhibition (MRSA; drug released from the HA polymer, every collection between 1 hour and 7 days) |
| --- | --- | --- | --- | --- | --- |
| O=C(O)c1cn(C2CC2)c2cc(N3CCNCC3)c(F)cc2c1=O [Ciprofloxacin] | 5 | 0.5 (≈ 1.51 µM) | – | – | – |
| CN[C@H](CC(C)C)C(=O)N[C@H]1C(=O)N[C@@H](CC(N)=O)C(=O)N[C@H]2C(=O)N[C@H]3C(=O)N[C@H](C(=O)N[C@H](C(=O)O)c4cc(O)cc(O)c4-c4cc3ccc4O)[C@H](O)c3ccc(c(Cl)c3)Oc3cc2cc(c3O[C@@H]2O[C@H](CO)[C@@H](O)[C@H](O)[C@H]2O[C@H]2C[C@](C)(N)[C@H](O)[C@H](C)O2)Oc2ccc(cc2Cl)[C@H]1O [Vancomycin] | – | 2 (≈ 1.38 µM) | 8 | 10 | up to 15 mm |

From patent US20210260213A1, “METHODS AND COMPOSITIONS FOR DELIVERY OF A THERAPEUTIC AGENT” (priority 2018, published 2021)
